These results are taken from ChEMBL document CHEMBL1137428, “Synthesis and monoamine transporter binding properties of 2,3-cyclo analogues of 3beta-(4'-aminophenyl)-2beta-tropanemethanol” (J Med Chem, 2006).

Assay [1] addresses Sodium-dependent noradrenaline transporter (Homo sapiens, UniProt P23975). As to the kind of experiment: Displacement of [3H]nisoxetine from human NET. In general terms: Displacement assays read how much labelled ligand stays bound in the presence of the test substance.
In assay [2] the target is Sodium-dependent dopamine transporter (Homo sapiens, UniProt Q01959). As to the kind of experiment: Displacement of [3H]WIN-35428 from human DAT.
For assay [3], the target named is Sodium-dependent serotonin transporter (Homo sapiens, UniProt P31645). Description: Displacement of [3H]paroxetine from human 5HTT.
Chain of Sodium-dependent serotonin transporter (P31645 whole entry): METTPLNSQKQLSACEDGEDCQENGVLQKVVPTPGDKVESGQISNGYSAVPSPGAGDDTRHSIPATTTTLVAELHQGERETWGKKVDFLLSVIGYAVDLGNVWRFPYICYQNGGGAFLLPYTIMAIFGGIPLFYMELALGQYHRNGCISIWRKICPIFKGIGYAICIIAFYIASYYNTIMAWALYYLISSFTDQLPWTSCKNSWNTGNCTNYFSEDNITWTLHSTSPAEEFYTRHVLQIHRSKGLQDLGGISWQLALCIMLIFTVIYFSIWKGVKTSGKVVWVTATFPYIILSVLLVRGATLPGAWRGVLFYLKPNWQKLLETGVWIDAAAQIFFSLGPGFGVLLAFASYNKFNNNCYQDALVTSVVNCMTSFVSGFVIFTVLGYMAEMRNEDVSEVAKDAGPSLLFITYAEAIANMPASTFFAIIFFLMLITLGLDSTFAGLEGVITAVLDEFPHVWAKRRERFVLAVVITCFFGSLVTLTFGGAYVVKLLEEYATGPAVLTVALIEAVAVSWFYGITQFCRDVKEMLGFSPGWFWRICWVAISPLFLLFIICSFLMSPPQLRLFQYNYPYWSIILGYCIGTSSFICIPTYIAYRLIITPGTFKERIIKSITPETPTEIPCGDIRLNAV

Chain of Sodium-dependent dopamine transporter (Q01959 whole entry): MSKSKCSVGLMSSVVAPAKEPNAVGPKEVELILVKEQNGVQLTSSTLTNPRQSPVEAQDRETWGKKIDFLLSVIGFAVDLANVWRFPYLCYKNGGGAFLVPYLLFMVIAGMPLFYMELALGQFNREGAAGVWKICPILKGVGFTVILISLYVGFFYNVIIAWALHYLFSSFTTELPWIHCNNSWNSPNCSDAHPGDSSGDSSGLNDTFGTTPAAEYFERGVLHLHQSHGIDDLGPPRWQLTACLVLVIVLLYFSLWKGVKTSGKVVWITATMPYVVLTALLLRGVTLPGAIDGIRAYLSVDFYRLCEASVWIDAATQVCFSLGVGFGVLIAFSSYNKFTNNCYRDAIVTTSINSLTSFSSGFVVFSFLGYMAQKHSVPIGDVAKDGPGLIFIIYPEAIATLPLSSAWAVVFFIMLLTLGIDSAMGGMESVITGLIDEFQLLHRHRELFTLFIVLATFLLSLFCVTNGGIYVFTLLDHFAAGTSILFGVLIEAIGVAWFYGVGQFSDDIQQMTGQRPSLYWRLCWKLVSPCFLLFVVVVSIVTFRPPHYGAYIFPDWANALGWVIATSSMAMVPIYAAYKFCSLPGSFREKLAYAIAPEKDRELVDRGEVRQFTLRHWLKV
Chain of Sodium-dependent noradrenaline transporter (P23975 whole entry): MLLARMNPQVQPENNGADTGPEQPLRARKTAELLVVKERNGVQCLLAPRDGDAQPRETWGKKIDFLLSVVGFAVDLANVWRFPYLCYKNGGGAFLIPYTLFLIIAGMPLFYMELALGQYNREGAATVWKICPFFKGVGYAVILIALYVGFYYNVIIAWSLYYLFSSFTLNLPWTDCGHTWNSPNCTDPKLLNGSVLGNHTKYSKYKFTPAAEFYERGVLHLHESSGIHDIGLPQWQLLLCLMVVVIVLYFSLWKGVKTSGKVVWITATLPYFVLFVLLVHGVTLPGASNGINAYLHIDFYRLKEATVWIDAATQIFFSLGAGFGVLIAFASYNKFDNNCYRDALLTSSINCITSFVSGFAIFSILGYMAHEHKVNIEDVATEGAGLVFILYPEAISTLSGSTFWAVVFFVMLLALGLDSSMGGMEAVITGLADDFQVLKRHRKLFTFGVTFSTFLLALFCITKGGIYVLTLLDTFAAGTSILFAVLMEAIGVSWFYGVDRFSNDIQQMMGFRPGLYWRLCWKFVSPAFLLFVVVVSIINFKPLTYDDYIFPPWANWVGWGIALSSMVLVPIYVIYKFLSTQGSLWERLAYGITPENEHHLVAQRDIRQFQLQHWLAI

As for `CN1C2CCC1C1COC(=O)CCC(=O)CCC(=O)Nc3ccc(cc3)C1C2` (stereo not given), the IC50 (in general, the midpoint of a concentration-inhibition curve) turned out to be 1400 nM in assay [1], 160 nM in assay [2] and 5010 nM in assay [3]. Further, the Ki – broadly, a dissociation constant, usually derived from enzyme kinetics or from competition with a known ligand – in assay [1] stood at 710 nM; in assay [3], 1230 nM.

For `CN1C(=O)CCCCCCCCC(=O)OCC2C(CC3CCC2N3C)c2ccc1cc2` (stereo not given), the Ki in assay [1] and in assay [3] was > 2000 nM in each case. In assay [2], this compound gave an IC50 of 1920 nM.

Turning to `CN1C2CCC1C1COC(=O)CCCCCC(=O)Nc3ccc(cc3)C1C2` (stereo not given), the results for the half-inhibitory concentration (IC50) in assay [1], in assay [2] and in assay [3] were 40 nM, 3.8 nM and 200 nM, respectively. Besides, the Ki came to 20 nM in assay [1] and 50 nM in assay [3].

Regarding `CN1C2CCC1C1COC(=O)CCCCCCCCCCC(=O)Nc3ccc(cc3)C1C2` (stereo not given), the IC50 in assay [1] was found to be 2320 nM; in assay [2], 390 nM; in assay [3], 1200 nM. For the same compound, the results for the Ki in assay [1] and in assay [3] were 1160 nM and 290 nM, respectively.

In the case of `CN1C2CCC1C1COC(=O)CCCCCCC(=O)Nc3ccc(cc3)C1C2` (stereo not given), the IC50 in assay [1] is 3040 nM; in assay [2], 70 nM; in assay [3], 2090 nM. Moreover, the Ki in assay [1] was determined as 1520 nM; in assay [3], 513 nM.

For the compound `CN1CCCCCCCCCCCC(=O)OCC2C(CC3CCC2N3C)c2ccc1cc2` (stereo not given), the Ki is > 2000 nM in assay [1] and 110 nM in assay [3]. Further, the IC50 in assay [2] turned out to be 490 nM; in assay [3], 450 nM.

Regarding `CN1C2CCC1C1COC(=O)CCSCCC(=O)Nc3ccc(cc3)C1C2` (stereo not given), the results for the IC50 in assay [1], in assay [2] and in assay [3] were 990 nM, 170 nM and 6730 nM, respectively. The Ki in assay [1] came to 500 nM; in assay [3] it was 1650 nM.

As to `CN1CCCCCCCCCC(=O)OCC2C(CC3CCC2N3C)c2ccc1cc2` (stereo not given), the IC50 in assay [1] was 2130 nM; in assay [2] it was 150 nM; in assay [3], 380 nM. Also, the Ki worked out at 1060 nM in assay [1] and 94 nM in assay [3].

As to `CN1C2CCC1C1COC(=O)CCCCC(=O)Nc3ccc(cc3)C1C2` (stereo not given), in assay [1], the Ki is > 2000 nM. Further, the IC50 in assay [2] was 890 nM; in assay [3], > 2000 nM.

`CN1C2CCC1C1COC(=O)CCCCCCCCC(=O)Nc3ccc(cc3)C1C2` (stereo not given): the IC50 was found to be 2800 nM in assay [1], 130 nM in assay [2] and 7.8 nM in assay [3]. In addition, the figures for the Ki in assay [1] and in assay [3] were 1400 nM and 1.9 nM, respectively.

For `CN1C2CCC1C1COC(=O)CCCCCCCC(=O)Nc3ccc(cc3)C1C2` (stereo not given), the Ki in assay [1] and in assay [3] was > 2000 nM in each case. The compound also registered an IC50 in assay [2] of 410 nM.

Regarding `CN1C2CCC1C1COC(=O)CCC3(CCC(=O)Nc4ccc(cc4)C1C2)c1ccccc1-c1ccccc13` (stereo not given), the IC50 in assay [1] is 980 nM; in assay [2], 290 nM; in assay [3], > 2000 nM. In assay [1], this compound displayed a Ki of 490 nM.

Regarding `CN1C2CCC1C1COC(=O)Cc3ccc(cc3)CC(=O)Nc3ccc(cc3)C1C2` (stereo not given), the inhibition constant (Ki) in assay [1] and in assay [3] was > 2000 nM throughout. For the same compound, the IC50 in assay [2] was > 2000 nM.
